Assay results: ChEMBL document CHEMBL1201862, “PubChem BioAssay data set” (2004)
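Results reflect a 48-hour exposure of cells in 96-well plates to compound at five concentrations. Abbreviation: GI50, concentration required for 50% inhibition of growth.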 Activity calls are given as the source filed them. Cut-off read from the data, not from the text of the source: active = GI50 up to about 1.1 µM and inactive = higher.

Columns and labels:
Assay in all cases: DTP human tumour cell line panel, 48 h
UO-31 = system: UO-31
K562 = system: K562
HOP-62 = system: HOP-62
RPMI-8226 = system: RPMI-8226
LOX IMVI = system: LOX IMVI
OVCAR-3 = system: OVCAR-3
SF-295 = system: SF-295
A549 = system: A549
786-0 = system: 786-0
SK-MEL-28 = system: SK-MEL-28
HL-60 = system: HL-60
HCC 2998 = system: HCC 2998
UACC-257 = system: UACC-257
T47D = system: T47D
NCI-H522 = system: NCI-H522
NCI-H460 = system: NCI-H460
Malme-3M = system: Malme-3M
SK-MEL-2 = system: SK-MEL-2
HOP-92 = system: HOP-92
M14 = system: M14

Measured: GI50

COc1cc2c(NCCCCCO)ncnc2c(OC)c1OC
inactive: UO-31 > 85.9 µM | K562 > 100 µM | HOP-62 > 100 µM | RPMI-8226 > 93.1 µM | LOX IMVI > 100 µM | OVCAR-3 > 100 µM | SF-295 > 100 µM | A549 > 100 µM | 786-0 > 100 µM | SK-MEL-28 > 100 µM | HL-60 > 100 µM | HCC 2998 > 100 µM | UACC-257 > 100 µM | T47D > 96.2 µM | NCI-H522 > 100 µM | NCI-H460 > 100 µM | Malme-3M > 63 µM | SK-MEL-2 > 100 µM | HOP-92 43.8 µM | M14 > 100 µM

COc1ccc(/N=N/C(=O)NC(Cc2ccccc2)C(=O)O)cc1 (stereo not given)
inactive: UO-31 > 100 µM | K562 > 100 µM | HOP-62 > 100 µM | RPMI-8226 > 100 µM | LOX IMVI > 100 µM | OVCAR-3 > 100 µM | SF-295 > 100 µM | A549 > 100 µM | 786-0 > 100 µM | SK-MEL-28 > 100 µM | HL-60 > 100 µM | HCC 2998 > 100 µM | UACC-257 > 100 µM | T47D > 100 µM | NCI-H522 > 100 µM | NCI-H460 > 100 µM | Malme-3M > 100 µM | SK-MEL-2 > 100 µM | HOP-92 28.2 µM | M14 > 100 µM

CC(c1ccccc1)n1c2ccccc2c2c(N)ncnc21 (stereo not given)
inactive: UO-31 9.16 µM | K562 24.7 µM | HOP-62 17.5 µM | RPMI-8226 42.4 µM | LOX IMVI 17.5 µM | OVCAR-3 16.2 µM | SF-295 17 µM | A549 21.6 µM | 786-0 14.9 µM | SK-MEL-28 17.9 µM | HL-60 23.9 µM | HCC 2998 18.2 µM | UACC-257 17.2 µM | T47D 15.5 µM | NCI-H522 13.6 µM | NCI-H460 24.3 µM | Malme-3M 21.2 µM | SK-MEL-2 23.7 µM | HOP-92 13.6 µM | M14 18.8 µM

COc1c2occc2c(OC)c2c(=O)c(S(=O)(=O)NC(=O)Nc3ccc(Cl)cc3)coc12
inactive: UO-31 > 10 µM | K562 > 10 µM | HOP-62 > 10 µM | RPMI-8226 > 10 µM | LOX IMVI > 10 µM | OVCAR-3 > 10 µM | SF-295 > 10 µM | A549 > 10 µM | 786-0 > 10 µM | SK-MEL-28 > 10 µM | HL-60 > 10 µM | HCC 2998 > 10 µM | UACC-257 > 10 µM | T47D > 10 µM | NCI-H522 > 10 µM | NCI-H460 > 10 µM | Malme-3M > 10 µM | SK-MEL-2 > 10 µM | HOP-92 > 10 µM | M14 > 10 µM
